Tested on: cells expressing the HSV-TK gene product
Assay: Negative selection of pIRES-MAB-TK cultures with ganciclovir
Assay type: cell-based, Chinese Hamster
Settings: 5 days in the presence of ganciclovir, then an additional 10 days in growth media alone
Experimental: For example, pIRES-MAB-TK cultures are grown for 5 days in the presence of the prodrug ganciclovir (Sigma), which kills cells expressing the HSV-TK gene product. After 5 days of negative selection, cells are grown for an additional 10 days in growth media alone at which time greater than 95% of cells die off. Resistant clones are then picked and expanded in 10 cm petri dishes. Cells are grown for 3 weeks, after which time a portion is reanalyzed for recombinant protein expression, for example, by western blot, RT-PCR, and/or PCR. DNA is analyzed for the presence of the pIRES-pro-TK or pIRES-MAB-TK vector by PCR using any set of primers that can specifically detect the presence or absence of the pIRES vector, for example, according to methods as previously described in Grasso et al. (1998).

SMILES: Nc1nc(O)c2ncn(COC(CO)CO)c2n1 [ganciclovir]
- cells die off: greater than 95%

Source: patent US20060258007A1, “Regulated vectors for selection of cells exhibiting desired phenotypes” (priority 2005, published 2006)
